{
  "source": "ChEMBL document CHEMBL4800727",
  "about": "(2021)",
  "key": {"[1]": {"target": "Sodium-dependent dopamine transporter (Homo sapiens, UniProt Q01959)", "sequence (Q01959 whole entry)": "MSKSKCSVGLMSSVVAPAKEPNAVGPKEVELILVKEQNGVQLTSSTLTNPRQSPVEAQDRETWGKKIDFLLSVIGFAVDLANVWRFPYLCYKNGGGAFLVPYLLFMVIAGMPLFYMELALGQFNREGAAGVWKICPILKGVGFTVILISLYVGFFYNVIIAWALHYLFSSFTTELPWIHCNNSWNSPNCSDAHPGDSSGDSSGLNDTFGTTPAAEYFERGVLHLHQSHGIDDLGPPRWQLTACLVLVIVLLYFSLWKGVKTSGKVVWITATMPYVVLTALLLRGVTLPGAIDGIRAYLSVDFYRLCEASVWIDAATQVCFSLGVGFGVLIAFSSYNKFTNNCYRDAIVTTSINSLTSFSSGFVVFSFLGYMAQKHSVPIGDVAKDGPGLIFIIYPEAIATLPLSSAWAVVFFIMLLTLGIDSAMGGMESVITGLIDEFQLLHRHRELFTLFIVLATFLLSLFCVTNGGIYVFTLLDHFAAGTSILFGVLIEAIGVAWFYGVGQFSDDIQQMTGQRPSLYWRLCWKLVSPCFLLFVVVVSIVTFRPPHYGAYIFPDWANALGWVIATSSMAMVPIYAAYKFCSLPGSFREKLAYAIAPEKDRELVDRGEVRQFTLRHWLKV", "experiment": "GPCRScan assay: inhibition of DAT", "set-up": "radioligand conc. used [nm] 3.6 – 16.0, parental cells stable HEK"}, "[2]": {"target": "Alpha-2A adrenergic receptor (Homo sapiens) (UniProt P08913)", "conditions": "Compound concentration 10.0 uM"}, "[3]": {"target": "cAMP and cAMP-inhibited cGMP 3',5'-cyclic phosphodiesterase 10A (Homo sapiens, UniProt Q9Y233)", "experiment": "SPA with human PDE10A"}, "[4]": {"target": "Cyclin-dependent kinase 2/cyclin A (Homo sapiens) (UniProt P24941+P20248+P78396)", "experiment": "cyclin-dependent kinase 2 / clyclinA Millipore kinase panel", "format": "protein-complex assay", "conditions": "Compound concentration 10.0 uM"}, "[5]": {"target": "Cyclin-dependent kinase 5/CDK5 activator 1 (Homo sapiens) (UniProt Q00535+Q15078)", "sequence (Q00535 whole entry)": "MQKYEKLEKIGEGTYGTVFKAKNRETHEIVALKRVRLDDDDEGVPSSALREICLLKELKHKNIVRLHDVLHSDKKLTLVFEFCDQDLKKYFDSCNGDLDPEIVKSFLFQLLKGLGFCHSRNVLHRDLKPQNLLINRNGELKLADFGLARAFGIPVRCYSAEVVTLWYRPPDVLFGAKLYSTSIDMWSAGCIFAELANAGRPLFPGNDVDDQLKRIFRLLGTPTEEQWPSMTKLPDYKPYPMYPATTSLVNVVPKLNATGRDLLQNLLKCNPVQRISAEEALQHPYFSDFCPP", "sequence (Q15078 99-307 partner limits assumed)": "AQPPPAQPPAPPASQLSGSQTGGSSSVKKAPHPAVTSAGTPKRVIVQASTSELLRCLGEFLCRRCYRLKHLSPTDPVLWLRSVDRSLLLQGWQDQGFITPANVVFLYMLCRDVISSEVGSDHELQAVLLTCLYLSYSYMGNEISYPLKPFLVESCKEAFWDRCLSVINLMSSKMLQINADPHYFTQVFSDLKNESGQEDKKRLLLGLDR", "experiment": "cyclin-dependent kinase 5 / p35 Millipore kinase panel", "format": "protein-complex assay", "conditions": "Compound concentration 10.0 uM"}, "[6]": {"target": "CDK7/Cyclin H/MNAT1 (Homo sapiens) (UniProt P51946+P50613+P51948)", "experiment": "Cyclin-dependent kinase 7 / cyclinH / MAT Millipore kinase panel", "format": "protein-complex assay", "conditions": "Compound concentration 10.0 uM"}, "[7]": {"target": "Death-associated protein kinase 1 (Homo sapiens) (UniProt P53355)", "experiment": "death-associated protein kinase 1 Millipore kinase panel", "conditions": "Compound concentration 10.0 uM"}, "[8]": {"target": "Death-associated protein kinase 3 (Homo sapiens) (UniProt O43293)", "experiment": "death-associated protein kinase 3 Millipore kinase panel", "conditions": "Compound concentration 10.0 uM"}, "[9]": {"target": "Ephrin type-A receptor 8 (Homo sapiens) (UniProt P29322)", "experiment": "EPH receptor A8 Millipore kinase panel", "conditions": "Compound concentration 10.0 uM"}, "[10]": {"target": "Ephrin type-B receptor 3 (Homo sapiens) (UniProt P54753)", "experiment": "EPH receptor B3 Millipore kinase panel", "conditions": "Compound concentration 10.0 uM"}, "[11]": {"target": "Fibroblast growth factor receptor 1 (Homo sapiens) (UniProt P11362)", "experiment": "fibroblast growth factor receptor 1 Millipore kinase panel", "conditions": "Compound concentration 10.0 uM"}, "[12]": {"target": "G protein-coupled receptor kinase 5 (Homo sapiens) (UniProt P34947)", "sequence (P34947 whole entry, looked up)": "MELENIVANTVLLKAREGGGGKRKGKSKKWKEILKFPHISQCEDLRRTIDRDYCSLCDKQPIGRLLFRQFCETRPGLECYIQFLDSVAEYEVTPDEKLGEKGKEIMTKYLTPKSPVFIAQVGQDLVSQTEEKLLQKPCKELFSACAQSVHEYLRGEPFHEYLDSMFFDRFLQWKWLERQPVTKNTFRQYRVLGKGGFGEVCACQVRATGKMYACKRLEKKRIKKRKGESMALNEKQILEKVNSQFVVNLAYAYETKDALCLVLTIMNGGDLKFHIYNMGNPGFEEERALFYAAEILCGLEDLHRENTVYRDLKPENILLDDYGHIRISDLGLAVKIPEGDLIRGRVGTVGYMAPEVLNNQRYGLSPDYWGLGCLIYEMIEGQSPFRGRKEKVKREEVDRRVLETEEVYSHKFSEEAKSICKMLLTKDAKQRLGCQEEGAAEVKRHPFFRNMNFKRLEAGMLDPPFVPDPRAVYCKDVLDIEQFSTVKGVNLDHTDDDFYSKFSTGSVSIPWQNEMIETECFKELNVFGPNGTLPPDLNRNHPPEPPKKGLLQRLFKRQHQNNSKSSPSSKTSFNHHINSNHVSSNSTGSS", "experiment": "G protein-coupled receptor kinase 5 Millipore kinase panel", "conditions": "Compound concentration 10.0 uM"}, "[13]": {"target": "Serine/threonine-protein kinase haspin (Homo sapiens) (UniProt Q8TF76)", "sequence (Q8TF76 whole entry)": "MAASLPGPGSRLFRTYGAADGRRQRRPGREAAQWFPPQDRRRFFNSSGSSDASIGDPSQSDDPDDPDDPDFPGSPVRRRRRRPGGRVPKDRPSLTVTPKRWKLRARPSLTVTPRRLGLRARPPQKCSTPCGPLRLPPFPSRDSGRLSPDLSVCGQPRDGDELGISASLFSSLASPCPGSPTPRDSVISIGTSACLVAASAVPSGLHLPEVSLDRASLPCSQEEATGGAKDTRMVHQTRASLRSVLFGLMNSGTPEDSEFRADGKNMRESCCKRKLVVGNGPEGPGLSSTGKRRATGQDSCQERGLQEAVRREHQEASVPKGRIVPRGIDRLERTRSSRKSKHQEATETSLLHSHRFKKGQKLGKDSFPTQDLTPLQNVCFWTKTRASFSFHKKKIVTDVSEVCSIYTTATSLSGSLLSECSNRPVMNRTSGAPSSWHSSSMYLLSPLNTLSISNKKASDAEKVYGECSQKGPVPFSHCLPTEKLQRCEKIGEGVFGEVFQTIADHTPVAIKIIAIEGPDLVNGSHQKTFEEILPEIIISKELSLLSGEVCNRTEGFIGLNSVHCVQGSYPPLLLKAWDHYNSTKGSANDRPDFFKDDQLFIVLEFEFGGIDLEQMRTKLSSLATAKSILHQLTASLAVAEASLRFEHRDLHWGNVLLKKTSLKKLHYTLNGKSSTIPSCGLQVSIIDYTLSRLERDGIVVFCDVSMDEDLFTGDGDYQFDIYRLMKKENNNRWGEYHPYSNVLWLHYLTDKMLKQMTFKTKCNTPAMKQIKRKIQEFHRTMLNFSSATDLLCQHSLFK", "experiment": "germ cell associated 2 (haspin) Millipore kinase panel", "conditions": "Compound concentration 10.0 uM"}, "[14]": {"target": "Insulin-like growth factor 1 receptor (Homo sapiens) (UniProt P08069)", "experiment": "insulin-like growth factor 1 receptor Millipore kinase panel", "conditions": "Compound concentration 10.0 uM"}, "[15]": {"target": "Interleukin-1 receptor-associated kinase 1 (Homo sapiens) (UniProt P51617)", "experiment": "interleukin-1 receptor-associated kinase 1 Millipore kinase panel", "conditions": "Compound concentration 10.0 uM"}, "[16]": {"target": "MAP kinase-interacting serine/threonine-protein kinase 2 (Homo sapiens) (UniProt Q9HBH9)", "experiment": "MAP kinase interacting serine/threonine kinase 2 Millipore kinase panel", "conditions": "Compound concentration 10.0 uM"}, "[17]": {"target": "Serine/threonine-protein kinase MARK1 (Homo sapiens) (UniProt Q9P0L2)", "sequence (Q9P0L2 whole entry, looked up)": "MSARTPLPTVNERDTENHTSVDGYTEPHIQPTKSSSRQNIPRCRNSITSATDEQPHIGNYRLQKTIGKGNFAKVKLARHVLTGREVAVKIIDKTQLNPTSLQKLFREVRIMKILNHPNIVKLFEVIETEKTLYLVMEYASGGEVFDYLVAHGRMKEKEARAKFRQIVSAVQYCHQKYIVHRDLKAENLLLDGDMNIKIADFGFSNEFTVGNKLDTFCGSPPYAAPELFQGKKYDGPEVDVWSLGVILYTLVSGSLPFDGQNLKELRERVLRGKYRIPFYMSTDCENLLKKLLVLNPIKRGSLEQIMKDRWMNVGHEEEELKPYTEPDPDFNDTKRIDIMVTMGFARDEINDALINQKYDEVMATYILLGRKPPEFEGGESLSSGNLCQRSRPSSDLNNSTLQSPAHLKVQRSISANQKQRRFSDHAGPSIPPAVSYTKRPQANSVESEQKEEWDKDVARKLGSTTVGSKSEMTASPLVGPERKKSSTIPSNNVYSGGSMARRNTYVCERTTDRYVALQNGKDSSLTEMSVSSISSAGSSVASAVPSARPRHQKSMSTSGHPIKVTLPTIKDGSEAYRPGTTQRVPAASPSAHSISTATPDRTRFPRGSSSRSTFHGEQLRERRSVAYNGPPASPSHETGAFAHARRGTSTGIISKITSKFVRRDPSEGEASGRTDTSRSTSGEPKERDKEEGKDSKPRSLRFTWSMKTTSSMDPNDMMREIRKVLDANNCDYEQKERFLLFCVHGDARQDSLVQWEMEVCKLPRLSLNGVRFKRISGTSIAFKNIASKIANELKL", "experiment": "MAP/microtubule affinity-regulating kinase 1 Millipore kinase panel", "conditions": "Compound concentration 10.0 uM"}, "[18]": {"target": "Serine/threonine-protein kinase MARK2 (Homo sapiens) (UniProt Q7KZI7)", "experiment": "MAP/microtubule affinity-regulating kinase 2 Millipore kinase panel", "conditions": "Compound concentration 10.0 uM"}, "[19]": {"target": "MAP kinase-activated protein kinase 2 (Homo sapiens) (UniProt P49137)", "experiment": "mitogen-activated protein kinase-activated protein kinase 2 Millipore kinase panel", "conditions": "Compound concentration 10.0 uM"}, "[20]": {"target": "MAP kinase-activated protein kinase 3 (Homo sapiens) (UniProt Q16644)", "experiment": "mitogen-activated protein kinase-activated protein kinase 3 Millipore kinase panel", "conditions": "Compound concentration 10.0 uM"}, "[21]": {"target": "Mitogen-activated protein kinase 1 (Homo sapiens) (UniProt P28482)", "sequence (P28482 whole entry)": "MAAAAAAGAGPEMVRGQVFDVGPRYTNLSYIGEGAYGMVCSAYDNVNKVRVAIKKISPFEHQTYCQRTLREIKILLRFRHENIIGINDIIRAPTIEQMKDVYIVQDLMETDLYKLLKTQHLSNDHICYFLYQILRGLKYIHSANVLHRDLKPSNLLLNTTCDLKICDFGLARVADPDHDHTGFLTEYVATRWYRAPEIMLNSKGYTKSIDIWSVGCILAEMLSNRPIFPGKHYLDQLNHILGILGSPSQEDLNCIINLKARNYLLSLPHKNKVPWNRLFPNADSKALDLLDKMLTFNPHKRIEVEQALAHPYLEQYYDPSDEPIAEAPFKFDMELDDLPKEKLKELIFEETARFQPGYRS", "experiment": "mitogen-activated protein kinase 1 (MAPK2) Millipore kinase panel", "conditions": "Compound concentration 10.0 uM"}, "[22]": {"target": "Mitogen-activated protein kinase kinase kinase kinase 1 (Homo sapiens) (UniProt Q92918)", "experiment": "mitogen-activated protein kinase kinase kinase kinase 1 Millipore kinase panel", "conditions": "Compound concentration 10.0 uM"}, "[23]": {"target": "Serine/threonine-protein kinase NLK (Homo sapiens) (UniProt Q9UBE8)", "experiment": "nemo-like kinase Millipore kinase panel", "conditions": "Compound concentration 10.0 uM"}, "[24]": {"target": "NUAK family SNF1-like kinase 1 (Homo sapiens) (UniProt O60285)", "sequence (O60285 whole entry)": "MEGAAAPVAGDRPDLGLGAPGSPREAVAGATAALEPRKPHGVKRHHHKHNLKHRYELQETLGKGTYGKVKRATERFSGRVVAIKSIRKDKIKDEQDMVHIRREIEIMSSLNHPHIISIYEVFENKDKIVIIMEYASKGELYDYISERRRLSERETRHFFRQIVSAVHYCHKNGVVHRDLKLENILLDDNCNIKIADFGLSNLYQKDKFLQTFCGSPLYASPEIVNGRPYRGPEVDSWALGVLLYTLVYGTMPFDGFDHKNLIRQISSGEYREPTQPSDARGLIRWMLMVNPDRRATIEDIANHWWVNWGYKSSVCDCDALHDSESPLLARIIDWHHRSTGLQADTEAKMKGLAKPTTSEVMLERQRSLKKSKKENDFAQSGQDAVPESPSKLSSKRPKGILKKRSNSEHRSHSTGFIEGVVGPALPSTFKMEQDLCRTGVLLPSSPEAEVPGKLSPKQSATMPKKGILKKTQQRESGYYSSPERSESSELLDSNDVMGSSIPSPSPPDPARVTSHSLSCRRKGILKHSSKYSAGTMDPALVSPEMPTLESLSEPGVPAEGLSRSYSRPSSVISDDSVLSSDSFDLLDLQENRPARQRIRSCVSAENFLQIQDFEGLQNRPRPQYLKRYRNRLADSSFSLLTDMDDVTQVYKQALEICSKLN", "experiment": "NUAK family, SNF1-like kinase, 1 Millipore kinase panel", "conditions": "Compound concentration 10.0 uM"}, "[25]": {"target": "Phosphorylase b kinase gamma catalytic chain, liver/testis isoform (Homo sapiens) (UniProt P15735)", "experiment": "phosphorylase kinase, gamma 2 Millipore kinase panel", "conditions": "Compound concentration 10.0 uM"}, "[26]": {"target": "Protein kinase C alpha type (Homo sapiens) (UniProt P17252)", "experiment": "protein kinase C, alpha Millipore kinase panel", "conditions": "Compound concentration 10.0 uM"}, "[27]": {"target": "Protein kinase C theta type (Homo sapiens) (UniProt Q04759)", "experiment": "protein kinase C, theta Millipore kinase panel", "conditions": "Compound concentration 10.0 uM"}, "[28]": {"target": "Protein-tyrosine kinase 6 (Homo sapiens) (UniProt Q13882)", "experiment": "PTK6 protein tyrosine kinase 6 Millipore kinase panel", "conditions": "Compound concentration 10.0 uM"}, "[29]": {"target": "Ribosomal protein S6 kinase beta-1 (Homo sapiens) (UniProt P23443)", "experiment": "ribosomal protein S6 kinase, 70kDa, polypeptide 1 Millipore kinase panel", "conditions": "Compound concentration 10.0 uM"}, "[30]": {"target": "RAC-gamma serine/threonine-protein kinase (Homo sapiens) (UniProt Q9Y243)", "sequence (Q9Y243 whole entry)": "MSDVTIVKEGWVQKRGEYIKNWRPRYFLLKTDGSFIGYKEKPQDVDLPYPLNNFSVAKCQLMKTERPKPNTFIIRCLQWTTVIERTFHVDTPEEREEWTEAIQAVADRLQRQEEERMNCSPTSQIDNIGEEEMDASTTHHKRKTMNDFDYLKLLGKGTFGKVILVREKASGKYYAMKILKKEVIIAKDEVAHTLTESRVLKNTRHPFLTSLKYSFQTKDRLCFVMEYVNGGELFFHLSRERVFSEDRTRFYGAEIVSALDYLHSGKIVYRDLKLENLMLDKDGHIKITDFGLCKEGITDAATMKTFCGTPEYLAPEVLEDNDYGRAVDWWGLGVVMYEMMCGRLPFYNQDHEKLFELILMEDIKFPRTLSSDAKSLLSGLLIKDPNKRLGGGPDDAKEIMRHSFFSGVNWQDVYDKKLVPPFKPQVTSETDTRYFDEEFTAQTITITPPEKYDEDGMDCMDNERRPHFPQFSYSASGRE", "experiment": "v-akt murine thymoma viral oncogene homolog 3 Millipore kinase panel", "conditions": "Compound concentration 10.0 uM"}, "[31]": {"target": "Serine/threonine-protein kinase WNK3 (Homo sapiens) (UniProt Q9BYP7)", "experiment": "WNK lysine deficient protein kinase 3 Millipore kinase panel", "conditions": "Compound concentration 10.0 uM"}, "[32]": {"target": "cGMP-specific 3',5'-cyclic phosphodiesterase (Homo sapiens, UniProt O76074)", "experiment": "hPDE5A3 PDE scan"}, "[33]": {"target": "High affinity 3',5'-cyclic-AMP phosphodiesterase 7A (Homo sapiens, UniProt Q13946)", "experiment": "hPDE7A1 PDE scan"}, "[34]": {"target": "D(2) dopamine receptor (Homo sapiens) (UniProt P14416)", "experiment": "hD2S Cerep panel", "conditions": "Compound concentration 10.0 uM"}, "[35]": {"target": "T1, Muscarinic acetylcholine receptor M2 (Homo sapiens) (UniProt P08172)", "T1 sequence (whole entry)": "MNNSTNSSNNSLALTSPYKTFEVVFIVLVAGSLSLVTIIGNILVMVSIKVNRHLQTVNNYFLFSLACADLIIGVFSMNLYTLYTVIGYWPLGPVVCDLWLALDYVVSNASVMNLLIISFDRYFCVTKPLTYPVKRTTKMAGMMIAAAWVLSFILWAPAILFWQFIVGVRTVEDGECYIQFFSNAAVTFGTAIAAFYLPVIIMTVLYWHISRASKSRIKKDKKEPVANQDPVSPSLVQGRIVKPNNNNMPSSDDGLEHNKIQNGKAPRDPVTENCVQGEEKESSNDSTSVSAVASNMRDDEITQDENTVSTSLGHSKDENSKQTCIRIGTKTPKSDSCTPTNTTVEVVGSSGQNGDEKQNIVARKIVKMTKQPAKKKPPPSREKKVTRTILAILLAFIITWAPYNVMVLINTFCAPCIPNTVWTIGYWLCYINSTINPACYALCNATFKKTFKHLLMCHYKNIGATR", "experiment": "hM2 Cerep panel", "conditions": "Compound concentration 10.0 uM"}, "[36]": {"target": "Substance-K receptor (Homo sapiens) (UniProt P21452)", "experiment": "hNK2 Cerep panel", "conditions": "Compound concentration 10.0 uM"}, "[37]": {"target": "P2X receptor (Rattus norvegicus) (UniProt P51579+P49653+P51578+Q64663+P47824+P51577+P49654)", "experiment": "rP2X Cerep panel", "format": "protein assay", "conditions": "Compound concentration 10.0 uM"}, "[38]": {"target": "5-hydroxytryptamine receptor 7 (Homo sapiens, UniProt P34969)", "experiment": "h5HT7 Cerep panel", "conditions": "Compound concentration 10.0 uM"}, "[39]": {"target": "Progesterone receptor (Homo sapiens) (UniProt P06401)", "experiment": "hPR Cerep panel", "conditions": "Compound concentration 10.0 uM"}, "[40]": {"target": "Neuronal acetylcholine receptor; alpha4/beta2 (Homo sapiens) (UniProt P17787+P43681)", "experiment": "hNneuronala4b2 Cerep panel", "conditions": "Compound concentration 10.0 uM"}, "[41]": {"target": "Prostaglandin G/H synthase 1 (Homo sapiens) (UniProt P23219)", "experiment": "hCOX1 Cerep panel", "conditions": "Compound concentration 10.0 uM"}},
  "note": "Calls of active or inactive are those of the source. The calls are words filed in the database; no cut-off is given here.",
  "data": [
    {"smiles": "c1ccc(C2CCN(c3cnc4c(N5CCOCC5)nccn34)CC2)cc1", "values": [
      {"measurement": "Ki", "setting": "[1]; read-out: Ki", "result": 4.13, "unit": "µM"},
      {"measurement": "Ki", "setting": "[1]; read-out: pKi (converted)", "result": 4.17, "unit": "µM"},
      {"measurement": "inhibition", "setting": "[2]", "result": 34.6, "unit": "%"}
    ]},
    {"smiles": "COCCc1ccc(-c2c(C)nc3c(N4CCOCC4)ccnn23)cn1", "note": "[JNJ-42396302]", "values": [
      {"measurement": "Ki", "setting": "[3]", "result": "0.013 µM (active)"},
      {"measurement": "inhibition", "setting": "[4]", "result": 2, "unit": "%"},
      {"measurement": "inhibition", "setting": "[5]", "result": -5, "unit": "%"},
      {"measurement": "inhibition", "setting": "[6]", "result": 1, "unit": "%"},
      {"measurement": "inhibition", "setting": "[7]", "result": -2, "unit": "%"},
      {"measurement": "inhibition", "setting": "[8]", "result": -2, "unit": "%"},
      {"measurement": "inhibition", "setting": "[9]", "result": 0, "unit": "%"},
      {"measurement": "inhibition", "setting": "[10]", "result": 3, "unit": "%"},
      {"measurement": "inhibition", "setting": "[11]", "result": 8, "unit": "%"},
      {"measurement": "inhibition", "setting": "[12]", "result": -4, "unit": "%"},
      {"measurement": "inhibition", "setting": "[13]", "result": 5, "unit": "%"},
      {"measurement": "inhibition", "setting": "[14]", "result": 1, "unit": "%"},
      {"measurement": "inhibition", "setting": "[15]", "result": -3, "unit": "%"},
      {"measurement": "inhibition", "setting": "[16]", "result": 10, "unit": "%"},
      {"measurement": "inhibition", "setting": "[17]", "result": -6, "unit": "%"},
      {"measurement": "inhibition", "setting": "[18]", "result": 9, "unit": "%"},
      {"measurement": "inhibition", "setting": "[19]", "result": -5, "unit": "%"},
      {"measurement": "inhibition", "setting": "[20]", "result": 3, "unit": "%"},
      {"measurement": "inhibition", "setting": "[21]", "result": 4, "unit": "%"},
      {"measurement": "inhibition", "setting": "[22]", "result": 5.53, "unit": "%"},
      {"measurement": "inhibition", "setting": "[23]", "result": 2, "unit": "%"},
      {"measurement": "inhibition", "setting": "[24]", "result": 7, "unit": "%"},
      {"measurement": "inhibition", "setting": "[25]", "result": -3, "unit": "%"},
      {"measurement": "inhibition", "setting": "[26]", "result": 15, "unit": "%"},
      {"measurement": "inhibition", "setting": "[27]", "result": 2, "unit": "%"},
      {"measurement": "inhibition", "setting": "[28]", "result": -6, "unit": "%"},
      {"measurement": "inhibition", "setting": "[29]", "result": -7, "unit": "%"},
      {"measurement": "inhibition", "setting": "[30]", "result": 24, "unit": "%"},
      {"measurement": "inhibition", "setting": "[31]", "result": 0, "unit": "%"},
      {"measurement": "Ki", "setting": "[32]", "result": 8.5, "unit": "µM"},
      {"measurement": "Ki", "setting": "[33]", "result": 23, "unit": "µM"},
      {"measurement": "effect", "setting": "[34]", "result": 1.7, "unit": "%"},
      {"measurement": "effect", "setting": "[35]", "result": 11, "unit": "%"},
      {"measurement": "effect", "setting": "[36]", "result": 9.7, "unit": "%"},
      {"measurement": "effect", "setting": "[37]", "result": 6.95, "unit": "%"},
      {"measurement": "effect", "setting": "[38]", "result": 8.6, "unit": "%"},
      {"measurement": "effect", "setting": "[39]", "result": 13.5, "unit": "%"},
      {"measurement": "effect", "setting": "[40]", "result": -3, "unit": "%"},
      {"measurement": "effect", "setting": "[41]", "result": 13, "unit": "%"}
    ]}
  ]
}
